# Results published in patent publication EP0476645B1, “Calcium uptake inhibitors” (MERRELL DOW PHARMACEUTICALS INC., priority 1990, dated 1992).
# Test system: Rat PMNL
# Test: Measurement of intracellular calcium in fMLP-stimulated PMNL preloaded with Fura-2
# Type: cell-based
# Conditions: fMLP stimulus, preincubation with compound 15 minutes at 37°C, concentrations in figure 1
# Description: Rat PMNL were obtained from exudates resulting from peritoneal injection of 6 mL of 8% sodium caseinate. Eighteen hours after injection rats were killed by carbon dioxide inhalation and the peritoneal cavity lavaged with Hank's balanced salt solution (HBSS). After concentration of the PMNL by centrifugation, contaminating erythrocytes were removed by hypotonic lysis. The PMNL were then washed twice by centrifugation (400 x g for 10 minutes) and resuspended in HBSS. Cell viability was greater than 90% by Trypan Blue exclusion and greater than 90% of the cells were PMNL by Wright-Giemsa stain.
# Intracellular calcium levels were obtained using Fura-2 as fluorescent indicator (Grynkiewicz et al., 1985). Fura-2 was loaded into PMNL as the acetoxymethyl ester (Fura-2/AM) using the method of Korchak et al., (1988). Specifically, 1 X 10⁸ PMNL/mL were incubated in HBSS with 10 µM Fura-2/AM for 10 minutes at 37°C. The cells suspension was then diluted ten fold with HBSS and further incubated for another 20 minutes. The cells were then centrifuged (400 x g for 8 minutes at 25°C) and the PMNL (1 x 10⁷ cells/mL) resuspended in HBSS containing 1% bovine serum albumin. Cells were stored at room temperature and used within 3 hours.
# Intracellular calcium level determinations were made using a dual wavelength spectrofluorometer (Photon Technology International, New Brunswick, NJ). Two mL of PMNL suspension (1 x 10⁷ cells/mL) were stirred magnetically at 37°C. Cells were preincubated with the compounds for 15 minutes at 37°C prior to activation. Where compounds were dissolved in DMSO and added directly, the DMSO never exceeded 0.3% in the final cell suspension. Total change in volume with addition of compounds or vehicle and stimuli never exceeded 3%. Intracellular calcium concentrations were calibrated by setting a maximum calcium level in the cells with the addition of 7 µM ionomycin to PMNL in HBSS containing 1% BSA. This was followed by treatment with 20 mM EGTA for 1 hour to obtain a minimum calcium level. […]
smiles,measurement,value
"CN(C)c1ccc(C(=O)C#Cc2ccncn2)cc1 [MDL 102,387, 1-(4-dimethylaminophenyl)-3-(4-pyrimidinyl)-2-propyne-1-one]",suppression of the second wave of intracellular calcium changes,selective concentration-dependent suppression
